Laboratory results taken from US20260159536A1, “AKR1C3-ACTIVATED DNA ALKYLATING AGENT, AND MEDICAL APPLICATION THEREOF” (ASCENTAWITS PHARMACEUTICALS, LTD., priority 2021, published 2026).

Legend:
Set-up in all cases: species or system BALB/c nude mice
[1] = test system: human liver cancer LI6652; test: In vivo pharmacodynamics, liver cancer LI6652 subcutaneous xenograft PDX model; conditions: for Tumor volume: 30 mg/kg p.o.
Method: The pharmacodynamic analysis of each group in liver cancer LI6652 model was performed on Day 31 after administration, and the results were shown in Table 12.

[2] = test system: HuPrime model LI6280 human liver cancer; test: In vivo pharmacodynamics, liver cancer LI6280 PDX model; conditions: for Tumor volume: 30 mg/kg p.o.
Method: Experiment Instruction: BALB/c nude mice were subcutaneously inoculated with HuPrime® model LI6280 tumour blocks to establish a subcutaneous transplantation tumour model of human liver cancer. […] The efficacy was evaluated according to the relative tumor inhibition rate TGI (%), and the safety was evaluated according to the change in body weight and the death of the animals.

[3] = test system: human liver cancer HepG2 cells; test: In vivo pharmacodynamics, liver cancer HepG2 CDX model
Method: Experiment Instruction: BALB/c nude mice were subcutaneously inoculated with human liver cancer HepG2 cells to establish a subcutaneous transplantation tumor model of human liver cancer. […] The efficacy was evaluated according to the relative tumor inhibition rate TGI (%), and the safety was evaluated according to the change in body weight and the death of the animals.

[4] = test system: HuPrime model LI6643 human liver cancer; test: In vivo pharmacodynamics, liver cancer LI6643 PDX model (Compound A, Sorafenib, AST-3424; section 4.7); conditions: for Tumor volume: 30 mg/kg p.o.
Method: Experiment Instruction: BALB/c nude mice were subcutaneously inoculated with HuPrime® model LI6643 tumor blocks to establish a subcutaneous grafted tumor model of human liver cancer. […] The efficacy was evaluated according to the relative tumor inhibition rate TGI (%), and the safety was evaluated according to the change in body weight and the death of the animals.

[5] = test system: HuPrime model LI6643 human liver cancer; test: In vivo pharmacodynamics, liver cancer LI6643 PDX model (Compound A, Sorafenib; section 4.8); conditions: for Tumor volume: 20-30 mg/kg p.o.
Method: Experiment Instruction: BALB/c nude mice were subcutaneously inoculated with HuPrime® model LI6643 tumor blocks to establish a subcutaneous transplantation tumor model of human liver cancer. […] The efficacy was evaluated according to the relative tumor inhibition rate TGI (%), and the safety was evaluated according to the change in body weight and the death of the animals.

[6] = test system: HuPrime model LI1005 human liver cancer; test: In vivo pharmacodynamics, liver cancer LI1005 PDX model; conditions: for Tumor volume: 30 mg/kg p.o.
[7] = test system: HuPrime model LI6664 human liver cancer; test: In vivo pharmacodynamics, liver cancer LI6664 PDX model; conditions: for Size of tumor volume: Group2, Sorafenib 30 mg/kg
Method: Experiment Instruction: BALB/c nude mice were subcutaneously inoculated with HuPrime® model LI6664 tumor blocks to establish a subcutaneous transplantation tumor model of human liver cancer. […] Among them, 7.5% anhydrous ethanol+7.5% polyoxyethylene (35) castor oil+85% glucose injection D5W (pH 7.4) vehicle control group was administered by tail vein once a week for 3 consecutive weeks; test drug AST-3424 0.3 mg/kg and 1 mg/kg groups were administered by tail vein injection once a day for 5 consecutive days, followed by 2 days off, followed by 2 weeks off, and then continuously administered for 5 consecutive days; the test drug AST-3424 1.25 mg/kg group was administered by tail vein injection once a week for 2 consecutive weeks, followed by one week off, and then continuously administered for 2 consecutive weeks, Compound A 0.5 mg/kg, 1.5 mg/kg, and 4.5 mg/kg groups were administered by tail vein injection once a week for three consecutive weeks, followed by 1 week off, and then administered for three consecutive weeks. […] The efficacy was evaluated according to the relative tumor inhibition rate TGI (%), and the safety was evaluated according to the change in body weight and the death of the animals.

[8] = test system: human liver cancer LI6652; test: In vivo pharmacodynamics, liver cancer LI6652 subcutaneous xenograft PDX model; conditions: 30 mg/kg p.o. QDx21; Day 28
[9] = 30 mg/kg, QDx21 Days, p.o., Day 53
[10] = 20-30 mg/kg p.o. QD (30 mg/kg day0-day11, 20 mg/kg day 12-day20), Day 35

Structure (SMILES): CNC(=O)c1cc(Oc2ccc(NC(=O)Nc3ccc(Cl)c(C(F)(F)F)c3)cc2)ccn1 [Sorafenib, reference compound]
- T/C (%) ([1]; 30 mg/kg p.o. QDx21, Day 28): 17.04%
- TGI (%) ([1]; 30 mg/kg p.o. QDx21, Day 28): 82.96%
- Tumor volume ([1]; Day 0): 125.84 mm^3
- Tumor volume ([1]; Day 3): 146.95 mm^3
- Tumor volume ([1]; Day 7): 196.51 mm^3
- Tumor volume ([1]; Day 10): 212.41 mm^3
- Tumor volume ([1]; Day 14): 217.19 mm^3
- Tumor volume ([1]; Day 17): 191.72 mm^3
- Tumor volume ([1]; Day 21): 178.69 mm^3
- Tumor volume ([1]; Day 24): 209.42 mm^3
- Tumor volume ([1]; Day 28): 315.93 mm^3
- Tumor volume ([1]; Day 31): 441.67 mm^3
- T/C (%) ([2]; 30 mg/kg p.o. QDx21, Day 17): 49.65%
- TGI (%) ([2]; 30 mg/kg p.o. QDx21, Day 17): 50.35%
- Tumor volume (x ± S) ([2]; 30 mg/kg p.o. QDx21, Day 17, in mm³ (unit assumed)): 1076.45 ± 230.21
- Tumor volume ([2]; Day 0): 103.93 mm^3
- Tumor volume ([2]; Day 3): 168.82 mm^3
- Tumor volume ([2]; Day 7): 269.83 mm^3
- Tumor volume ([2]; Day 10): 439.29 mm^3
- Tumor volume ([2]; Day 14): 731.99 mm^3
- Tumor volume ([2]; Day 17): 1076.45 mm^3
- Tumor volume ([2]; Day 21): 1241.19 mm^3
- Tumor volume ([2]; Day 24): 1504.89 mm^3
- Tumor volume ([2]; Day 28): 2218.52 mm^3
- Tumor volume ([2]; Day 31): 2313.01 mm^3
- weight loss ([3]; 30 mg/kg p.o.): caused significant weight loss
- Tumor volume ([3]; 30 mg/kg p.o., Day 19): 189.76 mm^3
- Tumor volume ([3]; 30 mg/kg p.o., Day 22): 291.62 mm^3
- Tumor volume ([3]; 30 mg/kg p.o., Day 24): 311.64 mm^3
- Tumor volume ([3]; 30 mg/kg p.o., Day 27): 340.46 mm^3
- Tumor volume ([3]; 30 mg/kg p.o., Day 31): 398.84 mm^3
- Tumor volume ([3]; 30 mg/kg p.o., Day 36): 491.06 mm^3
- Tumor volume ([3]; 30 mg/kg p.o., Day 39): 509.41 mm^3
- Tumor volume ([3]; 30 mg/kg p.o., Day 42): 657.51 mm^3
- Tumor volume ([3]; 30 mg/kg p.o., Day 46): 816.63 mm^3
- Tumor volume ([3]; 30 mg/kg p.o., Day 49): 1012.20 mm^3
- Tumor volume ([3]; 30 mg/kg p.o., Day 53): 1484.78 mm^3
- T/C (%) [3, 9]: 65.95%
- TGI (%) [3, 9]: 34.05%
- Tumor volume (x ± S) ([3]; 30 mg/kg, QDx21 Days, p.o., Day 53, in mm³ (unit assumed)): 1484.78 ± 304.89
- T/C (%) ([4]; 30 mg/kg p.o. QDx21, Day 21): 37.88%
- TGI (%) ([4]; 30 mg/kg p.o. QDx21, Day 21): 62.12%
- Tumor volume (x ± S) ([4]; 30 mg/kg p.o. QDx21, Day 21, in mm³): 214.75 ± 31.53
- Tumor volume ([4]; Day 0): 124.67 mm^3
- Tumor volume ([4]; Day 3): 170.03 mm^3
- Tumor volume ([4]; Day 7): 185.13 mm^3
- Tumor volume ([4]; Day 10): 193.95 mm^3
- Tumor volume ([4]; Day 14): 189.87 mm^3
- Tumor volume ([4]; Day 17): 171.25 mm^3
- Tumor volume ([4]; Day 21): 214.75 mm^3
- Tumor volume ([4]; Day 24): 238.48 mm^3
- Tumor volume ([4]; Day 28): 309.08 mm^3
- T/C (%) [5, 10]: 21.81%
- Tumor volume (x ± S) [5, 10]: 392.20 ± 64.05
- Tumor volume ([5]; Day 0): 126.16 mm^3
- Tumor volume ([5]; Day 4): 163.51 mm^3
- Tumor volume ([5]; Day 7): 205.85 mm^3
- Tumor volume ([5]; Day 11): 235.50 mm^3
- Tumor volume ([5]; Day 14): 279.42 mm^3
- Tumor volume ([5]; Day 18): 291.41 mm^3
- Tumor volume ([5]; Day 21): 287.76 mm^3
- Tumor volume ([5]; Day 25): 326.85 mm^3
- Tumor volume ([5]; Day 28): 346.56 mm^3
- Tumor volume ([5]; Day 32): 385.09 mm^3
- Tumor volume ([5]; Day 35): 392.20 mm^3
- Tumor volume ([5]; Day 39): 431.87 mm^3
- Tumor volume ([5]; Day 42): 451.48 mm^3
- Tumor volume ([5]; Day 46): 521.44 mm^3
- Tumor volume ([5]; Day 49): 585.72 mm^3
- Tumor volume ([5]; Day 53): 622.46 mm^3
- T/C (%) ([6]; 30 mg/kg p.o. QDx21, Day 35): 28.26%
- TGI (%) ([6]; 30 mg/kg p.o. QDx21, Day 35): 71.74%
- Tumor volume (x ± S) ([6]; 30 mg/kg p.o. QDx21, Day 35, in mm³ (unit assumed)): 294.09 ± 60.93
- Tumor volume ([6]; Day 0): 102.89 mm^3
- Tumor volume ([6]; Day 3): 121.64 mm^3
- Tumor volume ([6]; Day 7): 136.21 mm^3
- Tumor volume ([6]; Day 10): 136.21 mm^3
- Tumor volume ([6]; Day 14): 136.89 mm^3
- Tumor volume ([6]; Day 17): 140.09 mm^3
- Tumor volume ([6]; Day 21): 142.56 mm^3
- Tumor volume ([6]; Day 24): 161.17 mm^3
- Tumor volume ([6]; Day 28): 200.97 mm^3
- Tumor volume ([6]; Day 31): 227.65 mm^3
- Tumor volume ([6]; Day 35): 294.09 mm^3
- Size of tumor volume ([7]; Day 0): 107.93 mm^3
- Size of tumor volume ([7]; Day 4): 170.15 mm^3
- Size of tumor volume ([7]; Day 7): 197.93 mm^3
- Size of tumor volume ([7]; Day 11): 218.34 mm^3
- Size of tumor volume ([7]; Day 14): 321.83 mm^3
- Size of tumor volume ([7]; Day 18): 391.52 mm^3
- Size of tumor volume ([7]; Day 21): 481.85 mm^3
- Size of tumor volume ([7]; Day 25): 730.68 mm^3
- Size of tumor volume ([7]; Day 28): 1003.42 mm^3
- Size of tumor volume ([7]; Day 32): 1333.07 mm^3
- Size of tumor volume ([7]; Day 35): 1595.00 mm^3
- Size of tumor volume ([7]; Day 39): 2102.94 mm^3
- Size of tumor volume ([7]; Day 42): 2729.04 mm^3
- Size of tumor volume ([7]; Day 46): 2892.15 mm^3
- Size of tumor volume ([7]; Day 49): 2600.00 mm^3
- T/C (%) ([7]; Sorafenib 30 mg/kg, Day 28): 71.01%
- TGI (%) ([7]; Sorafenib 30 mg/kg, Day 28): 28.99%
- Tumor volume (x ± S) ([7]; Sorafenib 30 mg/kg, Day 28, mean ± standard error, in mm³ (unit assumed)): 1003.42 ± 128.88
- weight loss ([7]; treatment period, tested doses): weight loss in individual mice
- Tumor volume (x ± S) [8]: 315.93 ± 81.35
